Measurements: patent US9783537B2, “3-(4-ethylnylphenyl) pyridopyrimidinone compounds and process for preparation thereof useful as potential anticancer agents” (Council of Scientific & Industrial Research, priority 2013, dated 2017)
Where two headings read alike, the source gives them in different places.

How the values were obtained:
HL-60(TB) = assay: SRB 48 h growth assay, Leukemia HL-60(TB); assay type: cell-based, human
A549/ATCC = assay: SRB 48 h growth assay, Non-small Cell Lung A549/ATCC; assay type: cell-based, human
HOP-62 = assay: SRB 48 h growth assay, Non-small Cell Lung HOP-62; assay type: cell-based, human; details: HOP-62, Non-small Cell Lung
HOP-92 = assay: SRB 48 h growth assay, Non-small Cell Lung HOP-92; assay type: cell-based, human; details: HOP-92, Non-small Cell Lung
NCI-H460 = assay: SRB 48 h growth assay, Non-small Cell Lung NCI-H460; assay type: cell-based, human
NCI-H522 = assay: SRB 48 h growth assay, Non-small Cell Lung NCI-H522; assay type: cell-based, human
SF-268 = assay: SRB 48 h growth assay, CNS SF-268; assay type: cell-based, human; details: SF-268, CNS
SF-539 = assay: SRB 48 h growth assay, CNS SF-539; assay type: cell-based, human; details: SF-539, CNS
SNB-19 = assay: SRB 48 h growth assay, CNS SNB-19; assay type: cell-based, human; details: SNB-19, CNS
SNB-75 = assay: SRB 48 h growth assay, CNS SNB-75; assay type: cell-based, human; details: SNB-75, CNS
SK-MEL-28 = assay: SRB 48 h growth assay, Melanoma SK-MEL-28; assay type: cell-based, human; details: SK-MEL-28, Melanoma
UACC-257 = assay: SRB 48 h growth assay, Melanoma UACC-257; assay type: cell-based, human; details: Homo sapiens, UACC-257, Melanoma
IGROV1 = assay: SRB 48 h growth assay, Ovarian IGROV1; assay type: cell-based, human
OVCAR-4 = assay: SRB 48 h growth assay, Ovarian OVCAR-4; assay type: cell-based, human; details: OVCAR-4, Ovarian
NCI/ADR-RES = assay: SRB 48 h growth assay, Ovarian NCI/ADR-RES; assay type: cell-based, human
SK-OV-3 = assay: SRB 48 h growth assay, Ovarian SK-OV-3; assay type: cell-based, human; details: SK-OV-3, Ovarian
A498 = assay: SRB 48 h growth assay, Renal A498; assay type: cell-based, human
ACHN = assay: SRB 48 h growth assay, Renal ACHN; assay type: cell-based, human
RXF393 = assay: SRB 48 h growth assay, Renal RXF393; assay type: cell-based, human
SN12C = assay: SRB 48 h growth assay, Renal SN12C; assay type: cell-based, human
TK-10 = assay: SRB 48 h growth assay, Renal TK-10; assay type: cell-based, human; details: TK-10, Renal
PC-3 = assay: SRB 48 h growth assay, Prostate PC-3; assay type: cell-based, human; details: PC-3, Prostate
MDA-MB-231/ATCC = assay: SRB 48 h growth assay, Breast MDA-MB-231/ATCC; assay type: cell-based, human
[1] = in vitro anticancer activity, non-small cell lung panel; assay type: cell-based; details: Homo sapiens; nine non-small cell lung cancer cell lines, exposure at least 48 h; read-out: GI50, range over panel
[2] = tested on: seven ovarian cancer cell lines (IGROV1, OVCAR-3, OVCAR-4, OVCAR-5, OVCAR-8, NCI/ADR-RES and SK-OV-3); assay: in vitro anticancer activity, ovarian panel; assay type: cell-based; details: Homo sapiens, exposure at least 48 h, read-out: GI50, range over panel
[3] = tested on: six breast cancer cell line (MCF-7, MDA-MB-231/ATCC, HS 578T, TD-47D, MDA-MB-468 and BT-549); assay: in vitro anticancer activity, breast panel; assay type: cell-based; details: Homo sapiens; six breast cancer cell lines, exposure at least 48 h; read-out: GI50, range over panel
[4] = Homo sapiens, read-out: Growth Inhibition GI50
[5] = Homo sapiens, read-out: Log10 GI50 (converted)
[6] = Homo sapiens, read-out: Log10 LC50 (converted)

C#Cc1ccc(-n2c(/C=C/c3ccc4ccccc4c3)nc3ncccc3c2=O)cc1 [4s, (E)-3-(4-Ethynylphenyl)-2-(2-(naphthalen-2-yl)vinyl)pyrido[2,3-d]pyrimidin-4(3H)-one]
Log10 TGI50 (HL-60(TB)): −5.05
GI50 (HL-60(TB); [4]): 1660 nM
GI50 (HL-60(TB); [5]): 1660 nM
CC50 (HL-60(TB); [6]): 8910 nM
Log10 TGI50 (A549/ATCC): >−4.00
GI50 (A549/ATCC; [4]): 2730 nM
GI50 (A549/ATCC; [5]): 2750 nM
CC50 (A549/ATCC; [6]): > 100000 nM
Log10 TGI50 (HOP-62): >−4.00
GI50 (HOP-62; [4]): 7450 nM
GI50 (HOP-62; [5]): 7410 nM
CC50 (HOP-62; [6]): > 100000 nM
Log10 TGI50 (HOP-92): −5.16
GI50 (HOP-92; [4]): 1630 nM
GI50 (HOP-92; [5]): 1620 nM
CC50 (HOP-92; [6]): 6920 nM
Log10 TGI50 (NCI-H460): >−4.00
GI50 (NCI-H460; [4]): 2880 nM
GI50 (NCI-H460; [5]): 2880 nM
LC50 (NCI-H460; [6]): > 100000 nM
Log10 TGI50 (NCI-H522): >−4.00
GI50 (NCI-H522; [4]): 5110 nM
GI50 (NCI-H522; [5]): 5130 nM
CC50 (NCI-H522; [6]): > 100000 nM
GI50 (SF-268; [4]): 2600 nM
GI50 (SF-268; [5]): 2630 nM
CC50 (SF-268; [6]): > 100000 nM
Log10 TGI50 (SF-268): >−4.00
GI50 (SF-539; [4]): 2910 nM
GI50 (SF-539; [5]): 2880 nM
CC50 (SF-539; [6]): > 100000 nM
Log10 TGI50 (SF-539): >−4.00
GI50 (SNB-19; [4]): 2950 nM
CC50 (SNB-19; [6]): > 100000 nM
Log10 TGI50 (SNB-19): >−4.00
GI50 (SNB-75; [4]): 3690 nM
GI50 (SNB-75; [5]): 2950 nM
CC50 (SNB-75; [6]): > 100000 nM
Log10 TGI50 (SNB-75): >−4.00
GI50 (SK-MEL-28; [4]): 4330 nM
GI50 (SK-MEL-28; [5]): 4370 nM
CC50 (SK-MEL-28; [6]): > 100000 nM
Log10 TGI50 (SK-MEL-28): >−4.00
GI50 (UACC-257; read-out: Growth Inhibition GI50): 2110 nM
GI50 (UACC-257; read-out: Log10 GI50 (converted)): 2090 nM
Log10 TGI50 (IGROV1): >−4.00
GI50 (IGROV1; Homo sapiens, IGROV-1, read-out: Growth Inhibition GI50): 2920 nM
GI50 (IGROV1; Homo sapiens, IGROV-1, read-out: Log10 GI50 (converted)): 2950 nM
CC50 (IGROV1; Homo sapiens, IGROV-1, read-out: Log10 LC50 (converted)): > 100000 nM
GI50 (OVCAR-4; [4]): 1950 nM
GI50 (OVCAR-4; [5]): 1950 nM
CC50 (OVCAR-4; [6]): > 100000 nM
Log10 TGI50 (OVCAR-4): >−4.00
Log10 TGI50 (NCI/ADR-RES): >−4.00
GI50 (NCI/ADR-RES; [4]): 3290 nM
GI50 (NCI/ADR-RES; [5]): 3310 nM
CC50 (NCI/ADR-RES; [6]): > 100000 nM
GI50 (SK-OV-3; [4]): 7550 nM
GI50 (SK-OV-3; [5]): 7590 nM
CC50 (SK-OV-3; [6]): > 100000 nM
Log10 TGI50 (SK-OV-3): >−4.00
Log10 TGI50 (A498): −5.23
GI50 (A498; [4]): 1690 nM
GI50 (A498; [5]): 1700 nM
CC50 (A498; [6]): 5890 nM
Log10 TGI50 (ACHN): >−4.00
GI50 (ACHN; [4]): 2570 nM
GI50 (ACHN; [5]): 2570 nM
CC50 (ACHN; [6]): > 100000 nM
Log10 TGI50 (RXF393): −5.26
GI50 (RXF393; Homo sapiens, RXF 393, read-out: Growth Inhibition GI50): 1790 nM
GI50 (RXF393; Homo sapiens, RXF 393, read-out: Log10 GI50 (converted)): 1780 nM
CC50 (RXF393; Homo sapiens, RXF 393, read-out: Log10 LC50 (converted)): 5500 nM
Log10 TGI50 (SN12C): >−4.00
GI50 (SN12C; [4]): 3290 nM
GI50 (SN12C; [5]): 3310 nM
CC50 (SN12C; [6]): > 100000 nM
GI50 (TK-10; [4]): 4040 nM
GI50 (TK-10; [5]): 4070 nM
CC50 (TK-10; [6]): > 100000 nM
Log10 TGI50 (TK-10): >−4.00
GI50 (PC-3; [4]): 2350 nM
GI50 (PC-3; [5]): 2340 nM
CC50 (PC-3; [6]): > 100000 nM
Log10 TGI50 (PC-3): >−4.00
Log10 TGI50 (MDA-MB-231/ATCC): >−4.00
GI50 (MDA-MB-231/ATCC; [4]): 3740 nM
GI50 (MDA-MB-231/ATCC; [5]): 3720 nM
CC50 (MDA-MB-231/ATCC; [6]): > 100000 nM
GI50 [1]: 180 to 700 nM
GI50 [2]: 300 to 400 nM
GI50 [3]: 230 to 350 nM
